Assay: Study HDP-CDV-201: safety and tolerability (adverse events, laboratory abnormalities, discontinuations)
Type: in vivo, human (adult allogeneic HSCT recipients)
Method: Clinical Studies of HDP-CDV were performed and described in detail in the following Examples. For example, HDP-CDV-201 is a placebo-controlled, dose-escalating trial in HSCT CMV (R+) recipients, evaluating the ability of HDP-CDV to prevent or control CMV infection was carried out. Five cohorts were established in which participants or subjects received either placebo or the HDP-CDV orally, in doses ranging from 40 mg weekly (QW) to 200 mg twice weekly (BIW). Subjects who were post-HSCT were enrolled at the time of engraftment and randomized to HDP-CDV or placebo (3 to 1 ratio) and received blinded therapy until approximately 100 day post-transplantation. HDP-CDV doses were 40 mg QW, 100 mg QW, 200 mg QW, 200 mg BIW and 100 mg BIW. Escalation to the next dose was decided by the data monitoring committee after review of the safety data from the previous Cohort. Subjects who developed CMV disease or CMV infection requiring pre-emptive therapy with local standard of care were discontinued from blinded therapy and followed for 4 weeks. Subjects who completed treatment with blinded therapy were followed for 8 weeks post-therapy.
Data from Study HDP-CDV-201 also provided characterization of the safety and tolerability profile of HDP-CDV when administered for the prevention or control of CMV infection in high risk (R^+) post-HSCT adult subjects.
The Safety population (SAFETY) included all randomized subjects who took at least one dose of study treatment. This population was used to summarize safety outcomes based on the treatment actually received, in cases where a subject was treated contrary to the randomization schedule.
The safety and tolerability profile of HDP-CDV, including subject demographics and Baseline characteristics; the AE profile; and laboratory abnormalities of interest were analyzed in the cohorts followed in this investigation.
Subjects completing the treatment period received a full course of study medication; those completing the entire study attended visits through 8 weeks of follow up. Subjects who discontinued treatment may have done so for protocol specified reasons (e.g. development of clinically significant CMV infection requiring preemptive treatment with excluded anti-CMV medications) or for other reasons (e.g., withdrawal, adverse events, loss to follow-up). The disposition of subjects in Study HDP-CDV-201 during the double-blind, placebo-controlled treatment period (through Week 11) is listed by dosing Cohort in TABLE 23.
Adverse events were examined by severity to ensure that all safety signals were identified in this study population. Because of the frequency of events in HSCT recipients, particular attention was given to evaluation of Grade 3 […], 4 (severe), and 5 (fatal) adverse events.
Only those preferred terms for which at least one Grade 3 or higher event was experienced in any treatment group are listed. Cytomegalovirus-related AEs are excluded from this analysis.
HDP-CDV is a lipid conjugate of CDV. Because CDV is known to have adverse effects on renal function and bone marrow, decreased GFR and persistent neutropenia were identified as AEs of special interest. Key renal and hematological (TABLE 30) laboratory parameters were measured and listed below by Study HDP-CDV-201 treatment groups. TABLE 30 includes abnormal levels of serum creatinine, neutrophils, platelets, WBCs, and hemoglobin and includes data at Screening and during the treatment period.
A common metric for unit based dosing of medications is by weight (mg/kg). When the distribution of weights was examined for all subjects participating in the study, the median was 78 kg and the lower 25th percentile weight was approximately 65 kg, which translates to a cut-off of ˜3 mg/kg for a 200 mg total weekly dose. Based upon this approach, a cut-off of 3 mg/kg was used to assess the frequency of diarrhea and associated GI AEs reported for the subjects in Cohorts 3 or 4a (TABLE 40).

CCCCCCCCCCCCCCCCOCCCOP(=O)(O)COC(CO)Cn1ccc(N)nc1=O (stereo not drawn) [HDP-CDV]
TEAE Staphylococcal Bacteremia, Grade 4 (200 mg BIW): 0
TEAE Staphylococcal Bacteremia, Grade 5 (200 mg BIW): 0
TEAE Thrombocytopenia, Frequency (200 mg BIW): 5 (16.7%)
TEAE Thrombocytopenia, Grade 2 (200 mg BIW): 2 (6.7%)
TEAE Thrombocytopenia, Grade 3 (200 mg BIW): 0
TEAE Thrombocytopenia, Grade 4 (200 mg BIW): 3 (10.0%)
TEAE Thrombocytopenia, Grade 5 (200 mg BIW): 0
TEAE Vomiting, Frequency (200 mg BIW): 8 (26.7%)
TEAE Vomiting, Grade 2 (200 mg BIW): 4 (13.3%)
TEAE Vomiting, Grade 3 (200 mg BIW): 0
TEAE Vomiting, Grade 4 (200 mg BIW): 0
TEAE Vomiting, Grade 5 (200 mg BIW): 0
subjects requiring treatment with steroids during the study (200 mg BIW): 83%
proportion of subjects with Grade 3 or higher ALT (>5×ULN) (200 mg BIW (8 of 30)): 27.6%
dose limiting toxicity (200 mg BIW not tolerable): Diarrhea
Subjects Reporting Diarrhea as an AE (200 mg BIW, n = 30): 21 (70.0%)
Discontinuation: Death (200 mg BIW, active treatment period): 3 (10%) Subject n (%)
Discontinuation: Adverse event (200 mg BIW, active treatment period through Week 11): 13 (43.3%) Subject n (%)
TEAE ALT increased, Frequency (200 mg QW): 2 (5.1%)
TEAE ALT increased, Grade 2 (200 mg QW): 1 (2.6%)
TEAE ALT increased, Grade 3 (200 mg QW): 1 (2.6%)
TEAE ALT increased, Grade 4 (200 mg QW): 0
TEAE ALT increased, Grade 5 (200 mg QW): 0
TEAE AML, Recurrent, Frequency (200 mg QW): 0
TEAE AML, Recurrent, Grade 2 (200 mg QW): 0
TEAE AML, Recurrent, Grade 3 (200 mg QW): 0
TEAE AML, Recurrent, Grade 4 (200 mg QW): 0
TEAE AML, Recurrent, Grade 5 (200 mg QW): 0
TEAE AST increased, Frequency (200 mg QW): 1 (2.6%)
TEAE AST increased, Grade 2 (200 mg QW): 1 (2.6%)
TEAE AST increased, Grade 3 (200 mg QW): 0
TEAE AST increased, Grade 4 (200 mg QW): 0
TEAE AST increased, Grade 5 (200 mg QW): 0
TEAE Abdominal pain, Frequency (200 mg QW): 5 (12.8%)
TEAE Abdominal pain, Grade 2 (200 mg QW): 1 (2.6%)
TEAE Abdominal pain, Grade 3 (200 mg QW): 1 (2.6%)
TEAE Abdominal pain, Grade 4 (200 mg QW): 0
TEAE Abdominal pain, Grade 5 (200 mg QW): 0
TEAE Acute GVHD, Frequency (200 mg QW): 13 (33.3%)
TEAE Acute GVHD, Grade 2 (200 mg QW): 5 (12.8%)
TEAE Acute GVHD, Grade 3 (200 mg QW): 4 (10.3%)
TEAE Acute GVHD, Grade 4 (200 mg QW): 2 (5.1%)
TEAE Acute GVHD, Grade 5 (200 mg QW): 1(2.6%)
TEAE Arthralgias, Frequency (200 mg QW): 1 (2.6%)
TEAE Arthralgias, Grade 2 (200 mg QW): 0
TEAE Arthralgias, Grade 3 (200 mg QW): 0
TEAE Arthralgias, Grade 4 (200 mg QW): 0
TEAE Arthralgias, Grade 5 (200 mg QW): 0
TEAE Back Pain, Frequency (200 mg QW): 2 (5.1%)
TEAE Back Pain, Grade 2 (200 mg QW): 2 (5.1%)
TEAE Back Pain, Grade 3 (200 mg QW): 0
TEAE Back Pain, Grade 4 (200 mg QW): 0
TEAE Back Pain, Grade 5 (200 mg QW): 0
TEAE Decreased appetite, Frequency (200 mg QW): 3 (7.7%)
TEAE Decreased appetite, Grade 2 (200 mg QW): 1 (2.6%)
TEAE Decreased appetite, Grade 3 (200 mg QW): 0
TEAE Decreased appetite, Grade 4 (200 mg QW): 0
TEAE Decreased appetite, Grade 5 (200 mg QW): 0
TEAE Diarrhea, Frequency (200 mg QW): 13 (33.3%)
TEAE Diarrhea, Grade 2 (200 mg QW): 5 (12.8%)
TEAE Diarrhea, Grade 3 (200 mg QW): 2 (5.1%)
TEAE Diarrhea, Grade 4 (200 mg QW): 0
TEAE Diarrhea, Grade 5 (200 mg QW): 0
TEAE Fatigue, Frequency (200 mg QW): 5 (12.8%)
TEAE Fatigue, Grade 2 (200 mg QW): 0
TEAE Fatigue, Grade 3 (200 mg QW): 1 (2.6%)
TEAE Fatigue, Grade 4 (200 mg QW): 0
TEAE Fatigue, Grade 5 (200 mg QW): 0
TEAE GGT Increased, Frequency (200 mg QW): 0
TEAE GGT Increased, Grade 2 (200 mg QW): 0
TEAE GGT Increased, Grade 3 (200 mg QW): 0
TEAE GGT Increased, Grade 4 (200 mg QW): 0
TEAE GGT Increased, Grade 5 (200 mg QW): 0
TEAE Generalized oedema, Frequency (200 mg QW): 0
TEAE Generalized oedema, Grade 2 (200 mg QW): 0
TEAE Generalized oedema, Grade 3 (200 mg QW): 0
TEAE Generalized oedema, Grade 4 (200 mg QW): 0
TEAE Generalized oedema, Grade 5 (200 mg QW): 0
TEAE Hyperbilirubinaemia, Frequency (200 mg QW): 3 (7.7%)
TEAE Hyperbilirubinaemia, Grade 2 (200 mg QW): 1 (2.6%)
TEAE Hyperbilirubinaemia, Grade 3 (200 mg QW): 0
TEAE Hyperbilirubinaemia, Grade 4 (200 mg QW): 1 (2.6%)
TEAE Hyperbilirubinaemia, Grade 5 (200 mg QW): 0
TEAE Hyperglycaemia, Frequency (200 mg QW): 1 (2.6%)
TEAE Hyperglycaemia, Grade 2 (200 mg QW): 0
TEAE Hyperglycaemia, Grade 3 (200 mg QW): 1 (2.6%)
TEAE Hyperglycaemia, Grade 4 (200 mg QW): 0
TEAE Hyperglycaemia, Grade 5 (200 mg QW): 0
TEAE Hyperkalemia, Frequency (200 mg QW): 1 (2.6%)
TEAE Hyperkalemia, Grade 2 (200 mg QW): 0
TEAE Hyperkalemia, Grade 3 (200 mg QW): 0
TEAE Hyperkalemia, Grade 4 (200 mg QW): 0
TEAE Hyperkalemia, Grade 5 (200 mg QW): 0
TEAE Hypocalcaemia, Frequency (200 mg QW): 0
TEAE Hypocalcaemia, Grade 2 (200 mg QW): 0
TEAE Hypocalcaemia, Grade 3 (200 mg QW): 0
TEAE Hypocalcaemia, Grade 4 (200 mg QW): 0
TEAE Hypocalcaemia, Grade 5 (200 mg QW): 0
TEAE Hypokalaemia, Frequency (200 mg QW): 5 (12.8%)
TEAE Hypokalaemia, Grade 2 (200 mg QW): 2 (5.1%)
TEAE Hypokalaemia, Grade 3 (200 mg QW): 0
TEAE Hypokalaemia, Grade 4 (200 mg QW): 0
TEAE Hypokalaemia, Grade 5 (200 mg QW): 0
TEAE Hyponatraemia, Frequency (200 mg QW): 7 (17.9%)
TEAE Hyponatraemia, Grade 2 (200 mg QW): 2 (5.1%)
TEAE Hyponatraemia, Grade 3 (200 mg QW): 2 (5.1%)
TEAE Hyponatraemia, Grade 4 (200 mg QW): 0
TEAE Hyponatraemia, Grade 5 (200 mg QW): 0
TEAE LFT Abnormal, Frequency (200 mg QW): 2 (5.1%)
TEAE LFT Abnormal, Grade 2 (200 mg QW): 0
TEAE LFT Abnormal, Grade 3 (200 mg QW): 0

Reference: patent US20140303092A1 (CHIMERIX, INC., priority 2011, published 2014)
